Tests used:
RS4;11 cells = assay: Inhibitory effect on proliferation of RS4;11 cells (CCK-8); assay type: cell-based, human; conditions: Homo sapiens, RS4-11, 72 h
Description: Experimental Example 2: Inhibitory Effect of Compounds on Proliferation of RS4;11 Cells
RS4;11 cells (from Nanjing Cobioer) in logarithmic growth phase and good cell condition were added to a centrifuge tube and centrifuged at 1500 rpm for 3 min in a low speed centrifuge. The supernatant was discarded, and 5 mL of complete medium (RPMI basic medium+10 wt % fetal bovine serum (FBS)) was added using a pipette for cell resuspension. The cells were counted using a cell counter, diluted with complete medium to a cell density of 2×10^5 cells/mL, and added with an equivalent amount of RPMI basic medium to adjust the serum concentration to 5% and the cell density to 1×10^5 cells/mL for plate seeding. The cells were seeded on a 96-well plate at 100 μL/well using a pipettor, and incubated in an incubator at 37° C., 5% CO2 with saturated humidity. After 24 h of incubation, compounds were loaded using a nanoliter pipettor, 2 duplicate wells were set for each concentration, and cells without compound were used as negative controls. […] Inhibition rate (%)=(mean value of negative control group—mean value of experimental group)/(mean value of negative control group—mean value of blank group)×100%. A dose-response curve was fitted by four-parameter analysis, with the logarithm of compound concentration serving as abscissa and inhibition rate serving as ordinate, so that IC50 was calculated (FIG. 2).

BCL-XL/BAK = target: T1, BCL-XL/BAK (Homo sapiens, UniProt Q07817); assay: Screening on inhibitory activity for BCL-XL/BAK binding (Cisbio HTRF kit)
T1 construct: purchased Cisbio
Description: 1.2 Screening on Inhibitory Activity for BCL-XL/BAK Binding
300 nM Tag1-BCL-XL protein stock solution and 10 μM Tag2-BAK protein stock solution were diluted to 2 nM and 80 nM respectively with dilution buffer in kit (model: BCL-XL/BAK (BH3) BINDING ASSAY KITS, from Cisbio). 5 μL of Tag1-BCL-XL protein diluent was added to each well, then different compounds dissolved with DMSO were added to the wells with a nanoliter pipettor, allowing the final compound concentrations to be 2000 nM to 0.488 nM (4-fold gradient for 7 concentrations in total). Blank control wells (without enzyme) and negative control wells (with enzyme, plus vehicle DMSO) were set, and 2 replicate wells were set. Finally, 5 μL of Tag2-BAK protein diluent was added to each well, and the mixture was mixed well by centrifugation and incubated at 25° C. for 15 min. 100× anti-Tag1-Eu^3+ and 100× anti-Tag2-XL665 were both diluted to 1× working concentration with the detection buffer in the kit. Anti-Tag1-Eu^3+ and anti-Tag2-XL665 were mixed well in a 1:1 ratio, and the mixture was added to wells at 5 µL/well, and incubated at 25° C. for 2 h or more. The plate was read using a PE Envision multi-functional microplate reader (excitation: […], emission: 665 nm) and IC50 (shown in table 1) was calculated by four-parameter fitting.

BCL-2/BAK = target: T2, BCL-2/BAK (Homo sapiens, UniProt P10415); assay: Screening on inhibitory activity for BCL-2/BAK binding (Cisbio HTRF kit)
T2 construct: purchased Cisbio
Description: 1.1 Screening on Inhibitory Activity for BCL-2/BAK Binding
500 nM Tag1-BCL-2 protein stock solution and 20 μM Tag2-BAK protein stock solution were diluted to 5 nM and 120 nM respectively with dilution buffer in kit (model: BCL-2/BAK (BH3) BINDING ASSAY KITS, from Cisbio). 5 μL of Tag1-BCL-2 protein diluent was added to each well, then different compounds dissolved with DMSO were added to the wells with a nanoliter pipettor, allowing the final compound concentrations to be 200 nM to 0.0488 nM (4-fold gradient for 7 concentrations in total). Blank control wells (without enzyme) and negative control wells (with enzyme, plus vehicle DMSO) were set, and 2 replicate wells were set. Finally, 5 μL of Tag2-BAK protein diluent was added to each well, and the mixture was mixed well by centrifugation and incubated at 25° C. for 15 min. 100× anti-Tag1-Eu^3+ and 100× anti-Tag2-XL665 were both diluted to 1× working concentration with the detection buffer in the kit. Anti-Tag1-Eu^3+ and anti-Tag2-XL665 were mixed well in a 1:1 ratio, and the mixture was added to wells at 5 μL/well, and incubated at 25° C. for 2 h or more. The plate was read using a PE Envision multi-functional microplate reader (excitation: […], emission: 665 nm) and IC50 (shown in table 1) was calculated by four-parameter fitting.

T1 sequence (Q07817 whole entry, species assumed): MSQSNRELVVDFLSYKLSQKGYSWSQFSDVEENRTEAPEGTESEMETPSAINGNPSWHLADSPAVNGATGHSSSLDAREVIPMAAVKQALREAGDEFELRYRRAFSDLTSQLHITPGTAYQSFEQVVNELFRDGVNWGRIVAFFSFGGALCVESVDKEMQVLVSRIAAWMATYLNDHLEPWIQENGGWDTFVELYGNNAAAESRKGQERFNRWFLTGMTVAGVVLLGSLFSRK
T2 sequence (P10415 whole entry, species assumed): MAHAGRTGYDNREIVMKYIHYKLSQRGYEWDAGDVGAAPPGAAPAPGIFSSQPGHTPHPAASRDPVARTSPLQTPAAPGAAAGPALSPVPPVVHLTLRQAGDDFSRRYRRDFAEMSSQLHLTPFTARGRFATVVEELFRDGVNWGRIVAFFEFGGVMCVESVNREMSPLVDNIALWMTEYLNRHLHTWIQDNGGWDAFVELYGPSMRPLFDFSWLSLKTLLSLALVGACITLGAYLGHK

Structure (SMILES) | IC50 (RS4;11 cells) [nM] | IC50 (BCL-XL/BAK) [nM] | IC50 (BCL-2/BAK) [nM]
CC1(C)CCC(CN2CCN(c3ccc(C(=O)NS(=O)(=O)c4ccc(NC[C@H]5CCOC5)c([N+](=O)[O-])c4)c(Oc4cnc5[nH]ccc5c4)c3)CC2)=C(c2ccc(C(F)(F)F)cc2Cl)C1 [Compound 35-1, (R)-4-(4-{[2-(2-chloro-4-trifluoromethylphenyl)-4,4-dimethylcyclohex-1-enyl]methyl}-piperazin-1-yl)-N-({3-nitro-4-[((tetrahydrofuran-3-yl)methyl)amino]phenyl}sulfonyl)-2-(1H-pyrrolo[2,3-b]pyridin-5-yloxy)-benzamide] | 9.6 | 232 | 1.61
CC1(C)CCC(CN2CCN(c3ccc(C(=O)NS(=O)(=O)c4ccc(NC[C@@H]5CN(S(C)(=O)=O)CCO5)c([N+](=O)[O-])c4)c(Oc4cnc5[nH]ccc5c4)c3)CC2)=C(c2ccc(C(F)(F)F)cc2Cl)C1 [Compound 67-1, (R)-4-(4-{[2-(2-chloro-4-trifluoromethylphenyl)-4,4-dimethylcyclohex-1-enyl]methyl}-piperazin-1-yl)-N-({3-nitro-4-[(((4-(methylsulfonyl)morpholin)-2-yl)methyl)amino]phenyl}sulfonyl)-2-(1H-pyrrolo[2,3-b]pyridin-5-yloxy)-benzamide] | 0.8 | 199 | 0.6
CC1(C)CCC(CN2CCN(c3ccc(C(=O)NS(=O)(=O)c4ccc(NC[C@H]5CCCO5)c([N+](=O)[O-])c4)c(Oc4cnc5[nH]ccc5c4)c3)CC2)=C(c2ccc(C(F)(F)F)cc2Cl)C1 [Compound 38-1, (R)-4-(4-{[2-(2-chloro-4-trifluoromethylphenyl)-4,4-dimethylcyclohex-1-enyl]methyl}-piperazin-1-yl)-N-({3-nitro-4-[((tetrahydrofuran-2-yl)methyl)amino]phenyl}sulfonyl)-2-(1H-pyrrolo[2,3-b]pyridin-5-yloxy)-benzamide] | 6.6 | 187 | 2.81
CC1(C)CCC(CN2CCN(c3ccc(C(=O)NS(=O)(=O)c4ccc(NCC5CCCCO5)c([N+](=O)[O-])c4)c(Oc4cnc5[nH]ccc5c4)c3)CC2)=C(c2ccc(C(F)(F)F)cc2Cl)C1 (stereo not drawn) [Compound 14-1, 4-(4-{[2-(2-chloro-4-trifluoromethylphenyl)-4,4-dimethylcyclohex-1-enyl]methyl}-piperazin-1-yl)-N-({3-nitro-4-[(4-tetrahydro-2H-pyran-2-ylmethyl)amino]phenyl}sulfonyl)-2-(1H-pyrrolo[2,3-b]pyridin-5-yloxy)-benzamide] | 8.6 | 338 | 5.1
CC1(C)CCC(CN2CCN(c3ccc(C(=O)NS(=O)(=O)c4ccc(NCCCC5CN(S(C)(=O)=O)CCO5)c([N+](=O)[O-])c4)c(Oc4cnc5[nH]ccc5c4)c3)CC2)=C(c2ccc(C(F)(F)F)cc2Cl)C1 (stereo not drawn) [Compound 71-1, 4-(4-{[2-(2-chloro-4-trifluoromethylphenyl)-4,4-dimethylcyclohex-1-enyl]methyl}-piperazin-1-yl)-N-({3-nitro-4-[(3-(4-(2-methylsulfonyl)morpholin-2-yl)propyl)amino]phenyl}sulfonyl)-2-(1H-pyrrolo[2,3-b]pyridin-5-yloxy)-benzamide] | 6.1 | 109 | 0.76

The remaining lines, values ahead:

IC50 (RS4;11 cells) [nM] | IC50 (BCL-XL/BAK) [nM] | IC50 (BCL-2/BAK) [nM] | Structure (SMILES)
7.8 | 653 | 3.09 | CC(=O)N1CCOC(CCNc2ccc(S(=O)(=O)NC(=O)c3ccc(N4CCN(CC5=C(c6ccc(C(F)(F)F)cc6Cl)CC(C)(C)CC5)CC4)cc3Oc3cnc4[nH]ccc4c3)cc2[N+](=O)[O-])C1 (stereo not drawn) [Compound 16-1, 4-(4-{[2-(2-chloro-4-trifluoromethylphenyl)-4,4-dimethylcyclohex-1-enyl]methyl}-piperazin-1-yl)-N-({3-nitro-4-[(2-(4-acetylmorpholin-2-yl)ethyl)amino]phenyl}sulfonyl)-2-(1H-pyrrolo[2,3-b]pyridin-5-yloxy)-benzamide]
3.3 | 273 | 2.6 | CC(C)C(=O)N1CCO[C@H](CNc2ccc(S(=O)(=O)NC(=O)c3ccc(N4CCN(CC5=C(c6ccc(C(F)(F)F)cc6Cl)CC(C)(C)CC5)CC4)cc3Oc3cnc4[nH]ccc4c3)cc2[N+](=O)[O-])C1 [Compound 66-1, (R)-4-(4-{[2-(2-chloro-4-trifluoromethylphenyl)-4,4-dimethylcyclohex-1-enyl]methyl}-piperazin-1-yl)-N-({3-nitro-4-[((4-isobutyrylmorpholin-2-yl)methyl)amino]phenyl}sulfonyl)-2-(1H-pyrrolo[2,3-b]pyridin-5-yloxy)-benzamide]
0.9 | 175 | 3.9 | CC1(C)CCC(CN2CCN(c3ccc(C(=O)NS(=O)(=O)c4ccc(NCC5CN(C(=O)C(F)(F)F)CCO5)c([N+](=O)[O-])c4)c(Oc4cnc5[nH]ccc5c4)c3)CC2)=C(c2ccc(C(F)(F)F)cc2Cl)C1 (stereo not drawn) [Compound 52-1, 4-(4-{[2-(2-chloro-4-trifluoromethylphenyl)-4,4-dimethylcyclohex-1-enyl]methyl}-piperazin-1-yl)-N-({3-nitro-4-[((4-(2,2,2-trifluoroacetyl)morpholin-2-yl)methyl)amino]phenyl}sulfonyl)-2-(1H-pyrrolo[2,3-b]pyridin-5-yloxy)-benzamide]
3.9 | 322 | 3.5 | COC(=O)N1CCOC(CNc2ccc(S(=O)(=O)NC(=O)c3ccc(N4CCN(CC5=C(c6ccc(C(F)(F)F)cc6Cl)CC(C)(C)CC5)CC4)cc3Oc3cnc4[nH]ccc4c3)cc2[N+](=O)[O-])C1 (stereo not drawn) [Compound 75-1, 4-(4-{[2-(2-chloro-4-trifluoromethylphenyl)-4,4-dimethylcyclohex-1-enyl]methyl}-piperazin-1-yl)-N-({3-nitro-4-[((4-(methoxyformyl)morpholin-2-yl)methyl)amino]phenyl}sulfonyl)-2-(1H-pyrrolo[2,3-b]pyridin-5-yloxy)-benzamide]
1.4 | 217 | 2.3 | CC1(C)CCC(CN2CCN(c3ccc(C(=O)NS(=O)(=O)c4ccc(NC[C@H]5CN(S(C)(=O)=O)CCO5)c([N+](=O)[O-])c4)c(Oc4cnc5[nH]ccc5c4)c3)CC2)=C(c2ccc(C(F)(F)F)cc2Cl)C1 [Compound 63-1, (S)-4-(4-{[2-(2-chloro-4-trifluoromethylphenyl)-4,4-dimethylcyclohex-1-enyl]methyl}-piperazin-1-yl)-N-({3-nitro-4-[(((4-(methylsulfonyl)morpholin)-2-yl)methyl)amino]phenyl}sulfonyl)-2-(1H-pyrrolo[2,3-b]pyridin-5-yloxy)-benzamide]
6.9 | 252 | 1.66 | CCOC(=O)N1CCOC(CNc2ccc(S(=O)(=O)NC(=O)c3ccc(N4CCN(CC5=C(c6ccc(C(F)(F)F)cc6Cl)CC(C)(C)CC5)CC4)cc3Oc3cnc4[nH]ccc4c3)cc2[N+](=O)[O-])C1 (stereo not drawn) [Compound 74-1, 4-(4-{[2-(2-chloro-4-trifluoromethylphenyl)-4,4-dimethylcyclohex-1-enyl]methyl}-piperazin-1-yl)-N-({3-nitro-4-[((4-(ethoxyformyl)morpholin-2-yl)methyl)amino]phenyl}sulfonyl)-2-(1H-pyrrolo[2,3-b]pyridin-5-yloxy)-benzamide]

Source: patent US20250257064A1, “TRIFLUOROMETHYL-SUBSTITUTED SULFONAMIDE AS BCL-2-SELECTIVE INHIBITOR” (Chia Tai Tianqing Pharmaceutical Group Co., Ltd., priority 2018, published 2025)
